# Measurements taken from publication PMC7073023, “Overexpression of ABCB1 Transporter Confers Resistance to mTOR Inhibitor WYE-354 in Cancer Cells” (International Journal of Molecular Sciences, 2020).
# Assays:
# ABCB1 [1] = molecular target: T1, ABCB1 (Homo sapiens, UniProt P08183); assay: cell-based; parameters: full length ABCB1 (transfected HEK293); ABCB1 membrane vesicles (ATPase kit); settings: read-out: % of the basal activity
# ABCB1 [2] = molecular target: T1, ABCB1
# T1 sequence (P08183 whole entry): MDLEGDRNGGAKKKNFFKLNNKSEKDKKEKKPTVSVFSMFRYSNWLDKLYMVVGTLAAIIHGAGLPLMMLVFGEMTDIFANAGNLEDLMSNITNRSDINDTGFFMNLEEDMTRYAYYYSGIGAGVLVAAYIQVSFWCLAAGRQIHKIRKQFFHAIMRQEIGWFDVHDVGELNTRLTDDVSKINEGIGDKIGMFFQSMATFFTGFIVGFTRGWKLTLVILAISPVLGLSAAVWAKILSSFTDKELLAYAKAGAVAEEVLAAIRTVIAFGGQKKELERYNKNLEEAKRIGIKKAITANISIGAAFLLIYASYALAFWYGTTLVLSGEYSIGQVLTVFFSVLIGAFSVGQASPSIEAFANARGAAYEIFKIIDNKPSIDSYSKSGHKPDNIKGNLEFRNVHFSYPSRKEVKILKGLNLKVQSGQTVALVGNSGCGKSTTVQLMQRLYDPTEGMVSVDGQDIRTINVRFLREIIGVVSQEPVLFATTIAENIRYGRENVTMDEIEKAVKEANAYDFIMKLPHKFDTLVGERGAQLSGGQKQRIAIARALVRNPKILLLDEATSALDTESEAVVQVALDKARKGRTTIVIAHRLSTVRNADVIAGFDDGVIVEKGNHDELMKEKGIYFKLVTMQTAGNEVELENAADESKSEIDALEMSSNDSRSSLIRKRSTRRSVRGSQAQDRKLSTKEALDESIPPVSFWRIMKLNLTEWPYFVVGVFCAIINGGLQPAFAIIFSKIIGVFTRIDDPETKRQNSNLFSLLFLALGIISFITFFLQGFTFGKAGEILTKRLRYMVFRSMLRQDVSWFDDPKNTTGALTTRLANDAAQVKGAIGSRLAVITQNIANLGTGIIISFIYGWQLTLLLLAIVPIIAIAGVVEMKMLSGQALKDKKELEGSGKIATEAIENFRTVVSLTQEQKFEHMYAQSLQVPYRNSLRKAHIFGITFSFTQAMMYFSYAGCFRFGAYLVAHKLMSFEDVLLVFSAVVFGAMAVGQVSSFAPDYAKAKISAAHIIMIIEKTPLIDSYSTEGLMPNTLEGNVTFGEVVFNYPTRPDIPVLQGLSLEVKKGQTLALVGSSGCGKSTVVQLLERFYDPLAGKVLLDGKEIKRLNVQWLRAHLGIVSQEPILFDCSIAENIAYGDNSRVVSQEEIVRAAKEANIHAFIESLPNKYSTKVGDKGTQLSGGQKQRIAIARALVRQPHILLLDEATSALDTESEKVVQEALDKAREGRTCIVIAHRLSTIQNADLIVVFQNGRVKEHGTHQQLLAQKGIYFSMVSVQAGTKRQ
compound,measurement,setting,value
COC(=O)Nc1ccc(-c2nc(N3CCOCC3)c3cnn(C4CCN(C(=O)OC)CC4)c3n2)cc1 [WYE-354],Emax,ABCB1 [1],141%
CC(=O)O[C@H]1C(=O)[C@@]2(C)[C@H]([C@H](OC(=O)c3ccccc3)[C@]3(O)C[C@H](OC(=O)[C@H](O)[C@@H](NC(=O)c4ccccc4)c4ccccc4)C(C)=C1C3(C)C)[C@]1(OC(C)=O)CO[C@@H]1C[C@@H]2O [paclitaxel],[3H]-paclitaxel accumulation in ABCB1-overexpressing and ABCB1-transfected cells,ABCB1 [2],"drug–drug interaction between WYE-354 and paclitaxel, which is a known substrate of ABCB1"
